Laboratory results reported in ChEMBL document CHEMBL1144916, “Identification of N,N-disubstituted phenylalanines as a novel class of inhibitors of hepatitis C NS5B polymerase” (J Med Chem, 2003).

These compounds were tested against RNA-directed RNA polymerase (Hepacivirus hominis, UniProt O39930) (assay: Inhibitory activity against Hepatitis C RNA dependent RNA polymerase Nonstructural protein 5B (NS5B polymerase) expressed from baculovirus-infected Sf9 insect cells).
RNA-directed RNA polymerase, sequence (O39930 whole entry): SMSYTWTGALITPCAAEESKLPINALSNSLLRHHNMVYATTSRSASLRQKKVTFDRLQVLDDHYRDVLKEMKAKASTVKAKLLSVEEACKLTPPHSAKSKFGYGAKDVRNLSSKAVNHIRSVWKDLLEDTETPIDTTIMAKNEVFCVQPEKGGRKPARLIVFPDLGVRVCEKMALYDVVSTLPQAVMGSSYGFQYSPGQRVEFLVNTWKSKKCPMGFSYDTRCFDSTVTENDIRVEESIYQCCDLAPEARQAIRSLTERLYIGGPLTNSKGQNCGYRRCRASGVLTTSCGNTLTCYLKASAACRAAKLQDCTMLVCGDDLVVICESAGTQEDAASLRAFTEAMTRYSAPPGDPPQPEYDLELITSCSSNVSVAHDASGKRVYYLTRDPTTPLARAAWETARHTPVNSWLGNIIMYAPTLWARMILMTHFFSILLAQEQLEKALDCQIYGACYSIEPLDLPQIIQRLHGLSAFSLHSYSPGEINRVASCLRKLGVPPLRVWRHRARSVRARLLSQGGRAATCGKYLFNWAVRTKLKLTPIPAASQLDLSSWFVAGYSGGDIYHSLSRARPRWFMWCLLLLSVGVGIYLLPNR
`O=C(O)[C@H](Cc1ccccc1)N(Cc1cccc(C(F)(F)F)c1)C(=O)c1ccc(Cl)cc1Cl` gave an IC50 of 1.7 µM. With `O=C(O)[C@H](Cc1ccccc1)N(Cc1cccc(Br)c1)C(=O)c1ccc(Cl)cc1Cl` the IC50 was 3.5 µM. `O=C(O)[C@H](Cc1ccccc1)N(Cc1ccc(Br)s1)C(=O)c1ccc(Cl)cc1Cl` showed an IC50 of 3.1 µM. With `O=C(O)[C@H](Cc1ccccc1)N(Cc1ccccc1Br)C(=O)c1ccc(Cl)cc1Cl` the IC50 was 8 µM. Compound `O=C(O)[C@H](Cc1ccccc1)N(Cc1cccc(Br)c1)C(=O)c1ccccc1Cl` has an IC50 of 15 µM. Compound `O=C(O)CN(Cc1cccc(Br)c1)C(=O)c1ccc(Cl)cc1Cl` has an IC50 of 53 µM. `N#Cc1cccc(CN(C(=O)c2ccc(Cl)cc2Cl)[C@@H](Cc2ccccc2)C(=O)O)c1` was tested, and the IC50 was 0.8 µM. `COc1ccc(-c2ccc(Cl)cc2)c(COc2ccc(-c3nc4cc(C(=O)O)ccc4n3C3CCCCC3)cc2)c1` gave an IC50 of 0.62 µM. With `O=C(O)[C@H](Cc1ccccc1)N(Cc1ccc[n+]([O-])c1)C(=O)c1ccc(Cl)cc1Cl` the IC50 was 2.7 µM. `O=C(O)[C@H](Cc1ccccc1)N(Cc1ccc(-c2nccs2)cc1)C(=O)c1ccc(Cl)cc1Cl` showed an IC50 of 5.7 µM. In the case of `O=C(O)[C@H](Cc1ccccc1)N(Cc1ccccc1)C(=O)c1ccc(Cl)cc1Cl`, the IC50 is reported as 8 µM. Work on `N#Cc1ccc(CN(C(=O)c2ccc(Cl)cc2Cl)[C@@H](Cc2ccccc2)C(=O)O)cc1` yielded an IC50 of 8 µM. Compound `Cc1cccc(CN(C(=O)c2ccc(Cl)cc2Cl)[C@@H](Cc2ccccc2)C(=O)O)c1` has an IC50 of 1.8 µM. `O=C(O)[C@H](Cc1ccccc1)N(Cc1cccnc1)C(=O)c1ccc(Cl)cc1Cl` gave an IC50 of 11 µM. For `O=C(O)[C@H](Cc1ccccc1)N(Cc1ccc(Br)cc1)C(=O)c1ccc(Cl)cc1Cl`, the IC50 was 9.1 µM. Work on `O=C(O)[C@H](Cc1ccccc1)N(Cc1cccc([N+](=O)[O-])c1)C(=O)c1ccc(Cl)cc1Cl` yielded an IC50 of 0.7 µM. `O=C(O)[C@H](Cc1ccccc1)N(Cc1cccc(Br)c1)C(=O)c1ccc(Cl)cc1` showed an IC50 of 11 µM. In the case of `O=C(O)[C@H](Cc1ccccc1)N(Cc1ccc(-c2cc3ccccc3o2)s1)C(=O)c1ccc(Cl)cc1Cl`, the IC50 is reported as 8.6 µM. With `O=C(O)[C@H](Cc1ccccc1)N(Cc1cccc(F)c1)C(=O)c1ccc(Cl)cc1Cl` the IC50 was 3.2 µM. `O=C(O)[C@@H](Cc1ccccc1)N(Cc1cccc(Br)c1)C(=O)c1ccc(Cl)cc1Cl` showed an IC50 of 8.6 µM. Compound `O=C(O)[C@H](Cc1ccccc1)N(Cc1cccc(Cl)c1)C(=O)c1ccc(Cl)cc1Cl` has an IC50 of 1.4 µM. Compound `N#Cc1ccccc1CN(C(=O)c1ccc(Cl)cc1Cl)[C@@H](Cc1ccccc1)C(=O)O` has an IC50 of 6 µM.
